Source: patent publication US9085576B2 (AMGEN INC., priority 2013, dated 2015)

How the values were obtained:
[1] = target: Beta Secretase enzyme (BACE) (Homo sapiens (Human), UniProt P56817); assay: In vitro enzymatic BACE FRET assay; assay type: biochemical; settings: read-out: BACE1 Enzyme assay IC50
Cathepsin D (Cat D) = Cathepsin D (Cat D) (Homo sapiens (Human), UniProt P07339); assay: In vitro enzymatic Cathepsin D (Cat D) FRET assay; assay type: biochemical; settings: read-out: CatD IC50
BACE = BACE (Homo sapiens (Human), UniProt P56817); assay: In vitro BACE cell-based assay (Aβ40 in conditioned medium, sandwich ELISA)
Chain of BACE (P56817 46-501, species assumed): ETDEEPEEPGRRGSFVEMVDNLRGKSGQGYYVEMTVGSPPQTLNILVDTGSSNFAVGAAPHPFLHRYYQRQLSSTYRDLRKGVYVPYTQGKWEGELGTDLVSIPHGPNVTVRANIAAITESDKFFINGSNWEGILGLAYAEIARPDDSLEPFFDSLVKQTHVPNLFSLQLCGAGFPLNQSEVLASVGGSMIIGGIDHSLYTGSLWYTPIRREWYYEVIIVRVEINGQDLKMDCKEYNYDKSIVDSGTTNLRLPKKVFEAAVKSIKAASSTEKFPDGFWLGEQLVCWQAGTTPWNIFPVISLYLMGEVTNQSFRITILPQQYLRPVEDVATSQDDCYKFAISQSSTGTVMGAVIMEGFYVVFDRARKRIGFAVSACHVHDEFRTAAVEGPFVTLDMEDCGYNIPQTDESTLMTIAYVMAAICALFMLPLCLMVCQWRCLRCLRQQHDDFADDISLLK

Chain of Cathepsin D (Cat D) (P07339 65-412, species assumed): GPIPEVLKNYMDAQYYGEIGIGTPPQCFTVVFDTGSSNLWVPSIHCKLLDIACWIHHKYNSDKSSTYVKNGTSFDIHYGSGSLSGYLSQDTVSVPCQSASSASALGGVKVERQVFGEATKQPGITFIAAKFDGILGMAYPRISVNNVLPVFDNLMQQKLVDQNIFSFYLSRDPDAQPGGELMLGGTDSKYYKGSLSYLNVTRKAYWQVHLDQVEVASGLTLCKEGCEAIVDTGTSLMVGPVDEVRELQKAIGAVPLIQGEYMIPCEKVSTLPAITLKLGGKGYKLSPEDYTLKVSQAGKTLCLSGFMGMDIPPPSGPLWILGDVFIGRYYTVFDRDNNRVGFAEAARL
Chain of Beta Secretase enzyme (BACE) (P56817 46-501): as the sequence (P56817 46-501, species assumed) above

| IC50 [1] [µM] | IC50 (Cathepsin D (Cat D)) [µM] | IC50 (BACE) [µM] | Compound |
| --- | --- | --- | --- |
| 39.3 | 1620 | 2.1 | NC1=N[C@](CF)(c2nc(NC(=O)c3ccc(Cl)cn3)ccc2F)[C@H]2C[C@H]2O1 (stereo in doubt) [Example 105, N-(6-((1R,5S,6R)-3-amino-5-(fluoromethyl)-2-oxa-4-azabicyclo[4.1.0]hept-3-en-5-yl)-5-fluoropyridin-2-yl)-5-chloropicolinamide] |
| 0.252 | 216 | 0.0456 | NC1=N[C@@](CF)(c2nc(NC(=O)c3ccc(Cl)cn3)ccc2F)[C@@H]2C[C@@H]2O1 (stereo in doubt) [Example 106, N-(6-((1S,5R,6S)-3-amino-5-(fluoromethyl)-2-oxa-4-azabicyclo[4.1.0]hept-3-en-5-yl)-5-fluoropyridin-2-yl)-5-chloropicolinamide] |
| 26.2 | 1480 | > 17.4 | NC1=N[C@@](c2cc(NC(=O)c3nn(C(F)F)cc3Cl)cc(F)c2F)(C(F)F)[C@H]2C[C@H]2O1 (stereo in doubt) [Example 110, N-(3-((1R,5S,6R)-3-amino-5-(difluoromethyl)-2-oxa-4-azabicyclo[4.1.0]hept-3-en-5-yl)-4,5-difluorophenyl)-4-chloro-1-(difluoromethyl)-1H-pyrazole-3-carboxamide] |
| 0.0954 | 116 | 0.0779 | NC1=NC(c2cc(NCc3nn(C(F)F)cc3Cl)ccc2F)(C(F)F)[C@H]2C[C@H]2O1 (stereo in doubt) [Example 374, (1R,5R,6R)-5-(5-(((4-chloro-1-(difluoromethyl)-1H-pyrazol-3-yl)methyl)amino)-2-fluorophenyl)-5-(difluoromethyl)-2-oxa-4-azabicyclo[4.1.0]hept-3-en-3-amine] |
| 0.118 | 908 | 0.0765 | COc1cc(Cl)cnc1C(=O)Nc1ccc(F)c([C@@]2(C(F)F)N=C(N)O[C@@H]3C[C@@H]32)c1 [Example 28, N-(3-((1R,5S,6R)-3-amino-5-(difluoromethyl)-2-oxa-4-azabicyclo[4.1.0]hept-3-en-5-yl)-4-fluorophenyl)-5-chloro-3-methoxypicolinamide] |
| 1.22 | 1020 | 0.232 | NC1=N[C@@](CF)(c2cc(NC(=O)c3ccc(Cl)cn3)cc(F)c2F)[C@@H]2C[C@@H]2O1 [Example 32, N-(3-((1 S,5R,6S)-3-amino-5-(fluoromethyl)-2-oxa-4-azabicyclo[4.1.0]hept-3-en-5-yl)-4,5-difluorophenyl)-5-chloropicolinamide] |
| 0.0054 | 116 | 0.0014 | C#CCOc1cnc(C(=O)Nc2cc(F)c(F)c([C@@]3(CF)N=C(N)O[C@@H]4C[C@@H]43)c2)cn1 [Example 33, N-(3-((1R,5S,6R)-3-amino-5-(fluoromethyl)-2-oxa-4-azabicyclo[4.1.0]hept-3-en-5-yl)-4,5-difluorophenyl)-5-(prop-2-yn-1-yloxy)pyrazine-2-carboxamide] |
| 0.0469 | 109 | 0.0179 | NC1=N[C@](CF)(c2cc(NC(=O)c3ccc(Br)cn3)cc(F)c2F)[C@H]2C[C@H]2O1 [Example 39, N-(3-((1R,5S,6R)-3-amino-5-(fluoromethyl)-2-oxa-4-azabicyclo[4.1.0]hept-3-en-5-yl)-4,5-difluorophenyl)-5-bromopicolinamide] |
| 0.018 | 174 | 0.0046 | NC1=N[C@](CF)(c2cc(NC(=O)c3nn(C(F)F)cc3Cl)cc(F)c2F)[C@H]2C[C@H]2O1 [Example 46, N-(3-((1R,5S,6R)-3-amino-5-(fluoromethyl)-2-oxa-4-azabicyclo[4.1.0]hept-3-en-5-yl)-4,5-difluorophenyl)-4-chloro-1-(difluoromethyl)-1H-pyrazole-3-carboxamide] |
| 0.0308 | 202 | 0.0082 | Cc1cc(C#N)cnc1C(=O)Nc1cc(F)c(F)c([C@@]2(CF)N=C(N)O[C@@H]3C[C@@H]32)c1 [Example 49] |
| 0.0627 | 113 | 0.0143 | Cc1cc(C(F)(F)F)cnc1C(=O)Nc1cc(F)c(F)c([C@@]2(CF)N=C(N)O[C@@H]3C[C@@H]32)c1 [Example 51] |
| 0.0129 | 303 | 0.003 | CC#CCOc1cnc(C(=O)Nc2ccc(F)c([C@@]3(C)N=C(N)O[C@@H]4C[C@@H]43)c2)c(C)c1 [Example 56, N-(3-((1R,5S,6R)-3-amino-5-methyl-2-oxa-4-azabicyclo[4.1.0]hept-3-en-5-yl)-4-fluorophenyl)-5-(but-2-yn-1-yloxy)-3-methylpicolinamide] |
| 2.25 | 333 | 0.455 | CC#CCOc1cnc(C(=O)Nc2ccc(F)c([C@]3(C)N=C(N)O[C@H]4C[C@H]43)c2)c(C)c1 [Example 57, N-(3-((1S,5R,6S)-3-amino-5-methyl-2-oxa-4-azabicyclo[4.1.0]hept-3-en-5-yl)-4-fluorophenyl)-5-(but-2-yn-1-yloxy)-3-methylpicolinamide] |
| > 40 | > 400 | > 15.6 | NC1=N[C@](c2cc(NC(=O)c3ccc(Cl)cn3)ccc2F)(C(F)F)[C@@H]2C[C@@H]2O1 [Example 60, N-(3-((1S,5R,6S)-3-amino-5-(difluoromethyl)-2-oxa-4-azabicyclo[4.1.0]hept-3-en-5-yl)-4-fluorophenyl)-5-chloropicolinamide] |
| 0.0637 | 99.8 | 0.0584 | COc1cnc(C(=O)Nc2ccc(F)c([C@@]3(C(F)F)N=C(N)O[C@@H]4C[C@@H]43)c2)c(C)n1 [Example 63, N-(3((1R,5S,6R)-3-amino-5-(difluoromethyl)-2-oxa-4-azabicyclo[4.1.0]hept-3-en-5-yl)-4-fluorophenyl)-5-methoxy-3-methylpyrazine-2-carboxamide] |
| 6.19 | 191 | > 15.6 | COc1cnc(C(=O)Nc2ccc(F)c([C@]3(C(F)F)N=C(N)O[C@H]4C[C@H]43)c2)c(C)n1 [Example 64, N-(3-((1S,5R,6S)-3-amino-5-(difluoromethyl)-2-oxa-4-azabicyclo[4.1.0]hept-3-en-5-yl)-4-fluorophenyl)-5-methoxy-3-methylpyrazine-2-carboxamide] |
| 0.065 | 476 | 0.0063 | C[C@]1(c2cc(NC(=O)c3ccc(Cl)cn3)ccc2F)N=C(N)O[C@@H]2C[C@@H]21 [Example 68] |
| 0.126 | 440 | 0.0372 | Cc1c(C(=O)Nc2ccc(F)c([C@@]3(C(F)F)N=C(N)O[C@@H]4C[C@@H]43)c2)nc2ccc(Cl)cn12 [Example 69] |
| 0.0763 | 1110 | 0.0604 | COc1cnc(C(=O)Nc2ccc(F)c([C@@]3(C(F)F)N=C(N)O[C@@H]4C[C@@H]43)c2)cn1 [Example 72, N-(3-((1R,5S,6R)-3-amino-5-(difluoromethyl)-2-oxa-4-azabicyclo[4.1.0]hept-3-en-5-yl)-4-fluorophenyl)-5-methoxypyrazine-2-carboxamide] |
| > 40 | > 400 | > 15.6 | COc1ccc(C(=O)Nc2ccc(F)c([C@]3(CF)N=C(N)O[C@H]4C[C@H]43)c2F)nc1 [Example 78, N-(3-((1S,5R,6S)-3-amino-5-(fluoromethyl)-2-oxa-4-azabicyclo[4.1.0]hept-3-en-5-yl)-2,4-difluorophenyl)-5-methoxypicolinamide] |
| 3.04 | 942 | 0.12 | COc1ccc(C(=O)Nc2ccc(F)c([C@@]3(CF)N=C(N)O[C@@H]4C[C@@H]43)c2F)nc1 [Example 79, N-(3-((1R,5S,6R)-3-amino-5-(fluoromethyl)-2-oxa-4-azabicyclo[4.1.0]hept-3-en-5-yl)-2,4-difluorophenyl)-5-methoxypicolinamide] |
| 7.95 | > 400 | 0.183 | COC[C@]1(c2cc(NC(=O)c3cnc(OC)cn3)ccc2F)N=C(N)O[C@@H]2C[C@@H]21 [Example 80, N-(3-((1R,5S,6R)-3-amino-5-(methoxymethyl)-2-oxa-4-azabicyclo[4.1.0]hept-3-en-5-yl)-4-fluorophenyl)-5-methoxypyrazine-2-carboxamide] |
| > 40 | > 400 | > 15.6 | COC[C@@]1(c2cc(NC(=O)c3cnc(OC)cn3)ccc2F)N=C(N)O[C@H]2C[C@H]21 [Example 81, N-(3-((1S,5R,6S)-3-amino-5-(methoxymethyl)-2-oxa-4-azabicyclo[4.1.0]hept-3-en-5-yl)-4-fluorophenyl)-5-methoxypyrazine-2-carboxamide] |
| 2.74 | > 400 | 0.157 | COC[C@]1(c2cc(NC(=O)c3ccc(Cl)cn3)ccc2F)N=C(N)O[C@@H]2C[C@@H]21 [Example 82, N-(3-((1R,5S,6R)-3-amino-5-(methoxymethyl)-2-oxa-4-azabicyclo[4.1.0]hept-3-en-5-yl)-4-fluorophenyl)-5-chloropicolinamide] |
| > 40 | > 400 | > 15.6 | COC[C@@]1(c2cc(NC(=O)c3ccc(Cl)cn3)ccc2F)N=C(N)O[C@H]2C[C@H]21 [Example 83, N-(3-((1 S,5R,6S)-3-amino-5-(methoxymethyl)-2-oxa-4-azabicyclo[4.1.0]hept-3-en-5-yl)-4-fluorophenyl)-5-chloropicolinamide] |
| 0.494 | > 400 | 0.361 | COc1cnc(C(=O)Nc2ccc(F)c([C@@]3(C(F)F)N=C(N)O[C@@H]4C[C@@H]43)c2)c(OC)n1 [Example 84, N-(3-((1R,5S,6R)-3-amino-5-(difluoromethyl)-2-oxa-4-azabicyclo[4.1.0]hept-3-en-5-yl)-4-fluorophenyl)-3,5-dimethoxypyrazine-2-carboxamide] |

| Compound | IC50 [1] [µM] | IC50 (Cathepsin D (Cat D)) [µM] | IC50 (BACE) [µM] |
| --- | --- | --- | --- |
| CC#CCOc1cnc(C(=O)Nc2cc(F)c(F)c([C@@]3(CF)N=C(N)O[C@@H]4C[C@@H]43)c2)cn1 [Example 35, N-(3-((1R,5S,6R)-3-amino-5-(fluoromethyl)-2-oxa-4-azabicyclo[4.1.0]hept-3-en-5-yl)-4,5-difluorophenyl)-5-(but-2-yn-1-yloxy)pyrazine-2-carboxamide] | 0.0016 | 256 | 0.0006 |
